Reference: publication PMC11851433, “Novel Quinazoline Derivatives Inhibit Splicing of Fungal Group II Introns” (ACS Chemical Biology, 2025)
Values after ≈ are worked out from the molar mass of the structure shown. Like-named read-outs stand apart in the source and are kept apart here.

Legend:
[1] = system: HEK-293T cells; experiment: Cytotoxicity in HEK-293T cells (Cell Titer Glo); assay type: cell-based; conditions: Homo sapiens, read-out: IC50 for cell growth inhibition
Protocol: For the cytotoxicity experiments, cells were aliquoted into black 96-well plates with a clear bottom (Corning 3603), grown, treated with the inhibitors, and subjected to the Cell Titer Glo cell viability assay (Promega) as previously described.[33] All experiments were performed in triplicate.

[2] = target: ai5γ group II intron; experiment: Radioanalytic in vitro splicing assay, splicing inhibition constants; assay type: biochemical, Saccharomyces cerevisiae; conditions: for improvement of inhibitory activity (Ki) relative to compound 3: vs compound 3
Protocol: Internally ^32P-labeled ai5γ intron RNA with short exons[54] was in vitro transcribed in the presence of ^32P-α-UTP using T7 RNA polymerase and purified on a 5% denaturing polyacrylamide gel as described.[55] Large-scale transcription of the […] ribozyme, utilized for HTS, was carried out as previously described.[56] Splicing inhibition constants were determined as previously described[33],[34] with the following change in the experimental procedure: reactions were carried out in a buffer of 50 mM MOPS pH 7.5, 100 mM MgCl2, and 500 mM KCl at 42 °C. Aliquots of the reaction mixture were withdrawn at different time points, quenched, and analyzed on a 5% denaturing polyacrylamide gel as previously described.[55] Inhibition constants were determined as previously described.[33],[34] Experiments were performed twice to ensure reproducibility. Data represent average ± s.e.m.

[3] = system: D135 ribozyme; experiment: HTS / dose–response intron activity assay (fluorescently labeled substrate, D135 ribozyme); assay type: biochemical, Saccharomyces cerevisiae; conditions: 10 concentrations, highest 100 μM, 1:3 serial dilution
Protocol: The RNA oligonucleotide substrate for HTS, containing the last 17 nucleotides of the native 5′-exon and the first two nucleotides of the ai5γ intron,[33] was synthesized on a MerMade 12 RNA-DNA synthesizer (BioAutomation) using TBDMS RNA phosphoramidites (TxBio), aminomodifier C6dT, and Black Hole Quencher 2 CPG (Glen Research). For base deprotection, the oligonucleotide was treated with 30% ammonium hydroxide (JT Baker) for 24 h at RT. The 2’–OH deprotection and oligonucleotide purification were carried out as described.[57],[58] Fluorescent labeling of the substrate with the NHS ester of AlexaFluor 555 was carried out as described.[33]
HTS was carried out by CRL using the fluorescently labeled substrate, unlabeled D135 ribozyme (see above), and a proprietary library of ∼1,50,000 compounds using assay conditions previously described,[33] with the following adaptations. The D135 ribozyme (20 nM final concentration) was first prefolded in a buffer of 50 mM MOPS, pH 7.5, 50 mM MgCl2, and 500 mM KCl at 37 °C for 30 min. Library compounds were then added at 12.5 μM final concentration followed by addition of the substrate (to 15 nM final concentration), and the reaction mixtures were incubated at 37 °C for 40 min. Reactions were was quenched by addition of urea (2.67 M final) and analyzed as described. […]

[4] = system: C. parapsilosis; experiment: MIC determination for C. parapsilosis (CLSI M27-A3); assay type: cell-based, Candida parapsilosis; conditions: for MIC C. parapsilosis: Supplementary table 1; for MIC: Lodderomyces parapsilosis
Protocol: C. parapsilosis [strain American Type Culture Collection (ATCC) 22019] was purchased from ATCC and cultured according to the manufacturer’s instructions. S. cerevisiae wild-type (NP40-36a) and mtDNA intronless (XPM46) strains were a gift from Dr. Thomas Fox (Dept. of Molecular Biology and Genetics, Cornell University).[44] MICs for C. parapsilosis were determined as previously described[33] according to the guidelines from the protocol M27-A3 from the Clinical and Laboratory Standards Institute (CLSI).[59] All experiments were performed in triplicate.

[5] = system: WT S. cerevisiae strain; experiment: Inhibition of S. cerevisiae growth, WT strain; assay type: cell-based, Saccharomyces cerevisiae
Protocol: (§1) C. parapsilosis [strain American Type Culture Collection (ATCC) 22019] was purchased from ATCC and cultured according to the manufacturer’s instructions. S. cerevisiae wild-type (NP40-36a) and mtDNA intronless (XPM46) strains were a gift from Dr. Thomas Fox (Dept. of Molecular Biology and Genetics, Cornell University).[44]
(§2) Reduction of yeast growth in the presence of inhibitor molecules was assayed either in liquid YPD media (BD Bacto Yeast Extract, BD Bacto Peptone, 2% glucose) or in YPG media (BD Bacto Yeast Extract, BD Bacto Peptone, 3% glycerol), as previously described[33],[34],[59] with the following adaptations. Yeast cultures were grown for 24 h in YPD medium and for […] in YPG medium. All experiments were performed in triplicate to ensure reproducibility.

[6] = system: COX1 intronless S. cerevisiae strain; experiment: Inhibition of S. cerevisiae growth, COX1 intronless strain; assay type: cell-based, Saccharomyces cerevisiae
Protocol: as §1, §2

[7] = system: C. parapsilosis COX1 precursor mRNA splicing; experiment: In cellulo analysis of group II intron splicing by qRT-PCR; assay type: cell-based, Candida parapsilosis; conditions: compound 64 μg/mL, PGK1 as standard
Protocol: C. parapsilosis (ATCC: 22019) growth and harvest was performed essentially as described[33] with the following modifications. Compounds dissolved in DMSO were added to individual cultures to a final concentration of 64 μg/mL. Total RNA was isolated using an E.Z.N.A Fungal RNA Mini Kit (Omega Bio-tek) according to the manufacturer’s protocol. The RNA was eluted in 50 μL of a 1:100 mixture of SUPERaseIn RNase inhibitor (Thermo Fisher): MOPS-EDTA (ME) buffer [10 mM MOPS (pH 6.5), 0.1 mM Na-EDTA (pH 8.5)] followed by DNase treatment with RQ1 DNase (Promega) for 30 min at 37 °C. Then, the reaction was mixed with 7 μL of 3 M NaOAc and precipitated with 80% EtOH at –20 °C. The recovered RNA was resuspended in 30 μL of 1:100 mixture of SUPERaseIn RNase inhibitor/ME buffer. Next, 200 ng of Random Hexamer Primers (Thermo Fisher) was annealed to 10 ng of RNA in 11 μL at 65 °C for 5 min. The annealing reaction mixture was then cooled to RT, followed by the addition of 9 μL of a SuperScript III (Thermo Fisher) master mix: 1X First Strand Synthesis Buffer, 0.5 mM dNTPs (NEB: N0447S), 5 mM DTT, 10U SUPERaseIn RNase inhibitor, and 100 U SuperScript III. Manufacturer reverse transcription conditions were used, followed by an inactivation step at 75 °C for 15 min. After reverse transcription, RNA was degraded by adding 1.5 μL of a 1:1:1 mixture of RNase H (NEB), RNase A (NEB), and RNase T1 (Thermo Fisher) and incubating at 37 °C for 30 min. The cDNA was then purified using AMPure beads (Beckman Coulter) at a 1.8× bead-to-sample ratio according to the manufacturer’s protocol. Purified cDNA was eluted in 30 μL of nuclease-free water. Real-time PCR quantification of cDNA and subsequent determination of the relative levels of PGK1, COX1 (total), and COX1 (unspliced) from different conditions were performed in duplicate with three independent samples as previously described.[33]

[8] = target: ai5γ group II intron; design: method as in PMID 30323219; conditions: for comparison; read-out: Ki of previously published inhibitors; cited from earlier work
[9] = system: C. parapsilosis COX1 precursor mRNA splicing; design: method as in PMID 30323219; conditions: for comparison; cited from earlier work
[10] = Figure 3, 100 mM MgCl2, 500 mM KCl, 42 °C, read-out: Ki for the in vitro splicing of the ai5γ intron
[11] = Supplementary table 1, read-out: Ki ai5γ intron

C[C@@H]1[C@H](O)[C@@H](C)/C=C/C=C/C=C/C=C/C=C/C=C/C=C/[C@H](O[C@@H]2O[C@H](C)[C@@H](O)[C@H](N)[C@@H]2O)C[C@@H]2O[C@](O)(C[C@@H](O)C[C@@H](O)[C@H](O)CC[C@@H](O)C[C@@H](O)CC(=O)O[C@H]1C)C[C@H](O)[C@H]2C(=O)O [amphotericin B, reference compound]
IC50 [1]: 2.6 ± 0.2 µg/mL (≈ 2.81 µM)

COc1ccc(Nc2nc(-c3ccccn3)nc3ccccc23)cc1 [compound 1]
Ki [2, 10]: 27 ± 6 µM
IC50 [3]: 3 µM

COc1cccc(CNc2nc(-c3ccccn3)nc3ccccc23)c1 [compound 2]
MIC C. parapsilosis [4]: > 128 µg/mL
Ki [2, 11]: 55 ± 19 µM

c1ccc(CNc2nc(-c3ccccn3)nc3ccccc23)cc1 [compound 3]
Ki [2, 11]: 77 ± 25 µM

COc1ccc(Nc2ncnc3ccccc23)cc1 [compound 4]
Ki [2, 11]: > 100 µM

COc1cccc(CNc2ncnc3ccccc23)c1 [compound 5]
MIC C. parapsilosis [4]: 16 µg/mL (≈ 60.3 µM)
Ki [2, 11]: > 100 µM

c1ccc(Nc2ncnc3ccccc23)cc1 [compound 6]
Ki [2, 11]: > 100 µM

c1ccc(CNc2ncnc3ccccc23)cc1 [compound 7]
Ki [2, 11]: > 100 µM

Nc1nc(-c2ccccn2)nc2ccccc12 [compound 8]
Ki [2, 11]: > 100 µM

c1ccc(-c2ncc3ccccc3n2)nc1 [compound 9]
Ki [2, 11]: > 100 µM

CC(C)(C)c1ccc(Nc2nc(-c3ccccn3)nc3ccccc23)cc1 [compound 10]
MIC [4]: 2 to 8 µg/mL (≈ 5.64 to 22.6 µM)
Ki [2, 11]: 11 ± 2 µM

CC(C)(C)c1ccc(Nc2nc(-c3ccncc3)nc3ccccc23)cc1 [compound 11]
inhibitory activity in the splicing assay (in words) [2]: completely abolishes activity
Ki [2, 11]: > 100 µM

c1ccc(-c2nc(Nc3ccc4c(c3)OCO4)c3ccccc3n2)nc1 [compound 12]
Ki [2, 11]: 11 ± 2 µM
increase in inhibitory activity relative to compound 1 ([2]; vs compound 1): 3 fold

c1ccc(-c2nc(N3Cc4ccccc4C3)c3ccccc3n2)nc1 [compound 14]
growth inhibition of WT vs COX1 intronless S. cerevisiae strain ([5]; WT more strongly inhibited than intronless strain): eight-fold
MIC S. cerevisiae WT strain ([5]; WT strain): 4 µg/mL (≈ 12.3 µM)
MIC S. cerevisiae intronless strain [6]: 32 µg/mL (≈ 98.6 µM)
Ki [2, 11]: 7.6 ± 1.7 µM

CC(C)(C)c1cccc(CNc2nc(-c3ccccn3)nc3ccccc23)c1 [compound 15]
Ki [2, 11]: 6.4 ± 1.9 µM
improvement of inhibitory activity (Ki) relative to compound 3 [2]: more than 10 fold

FC(F)(F)c1cccc(CNc2nc(-c3ccccn3)nc3ccccc23)c1 [compound 16]
MIC ([5]; Saccharomyces cerevisiae): 16 µg/mL (≈ 42.1 µM)
MIC ([6]; Saccharomyces cerevisiae): 64 µg/mL (≈ 168 µM)
effect on splicing of C. parapsilosis COX1 (unspliced relative to total COX1 mRNA) [7]: moderate defects
MIC in C. parapsilosis [4]: 4 µg/mL (≈ 10.5 µM)
MIC [4]: 2 to 8 µg/mL (≈ 5.26 to 21 µM)
IC50 [1]: 5.6 ± 0.1 µg/mL (≈ 14.7 µM)
Ki [2, 11]: 5.6 ± 0.6 µM
improvement of inhibitory activity (Ki) relative to compound 3 [2]: more than 10 fold

Clc1cccc(CNc2nc(-c3ccccn3)nc3ccccc23)c1 [compound 17]
effect on splicing of C. parapsilosis COX1 (unspliced relative to total COX1 mRNA) [7]: moderate defects
MIC in C. parapsilosis [4]: 2 µg/mL (≈ 5.77 µM)
MIC [4]: 2 to 8 µg/mL (≈ 5.77 to 23.1 µM)
IC50 [1]: 3.9 ± 0.1 µg/mL (≈ 11.2 µM)
Ki [2, 11]: 2.6 ± 0.5 µM
improvement of inhibitory activity (Ki) relative to compound 3 [2]: 30 fold

FC(F)(F)c1cccc(CNc2nc(-c3ccccn3)nc3cc(Cl)ccc23)c1 [compound 18]
Ki [2, 11]: 20 ± 6 µM
drop in inhibitory activity relative to compound 16 ([2]; vs compound 16): four-fold

Clc1cccc(CNc2nc(-c3ccccn3)nc3cc(Cl)ccc23)c1 [compound 19]
effect on splicing of C. parapsilosis COX1 (unspliced relative to total COX1 mRNA) [7]: remained unchanged
Ki [2, 10]: 1.4 ± 0.4 µM

CC(=O)c1ccc(-c2ccc3oc(C(=O)c4cc(O)c(O)c(O)c4)cc3c2)cc1 [intronistat A]
Ki [8]: 2.1 ± 0.2 µM

O=C(NCCN1CCCC1)c1ccc2oc(C(=O)c3cc(O)c(O)c(O)c3)cc2c1 [intronistat B]
levels of unspliced vs total C. parapsilosis COX1 transcripts [9]: 1.5 fold
Ki [8]: 0.36 ± 0.02 µM
